Measured values taken from patent US4200642A, “Spiro-oxazolidindiones” (Pfizer Inc., priority 1978, dated 1980).
Several values for one entry are separate records, joined by “and”; a condition that tells them apart may be missing. Equal entries are not always repeated.

Legend:
[1] = test system: sorbitol accumulation in the sciatic nerve of streptozotocinized (i.e., diabetic) rats; assay: inhibition of sorbitol accumulation in the sciatic nerve of streptozotocinized (diabetic) rats; type: in vivo; conditions: measured at 27 hours, vs untreated, values below 20 not always significant; for % Inhibition at mg/kg Dosage 1.5: 1.5 mg/kg orally at 4, 8 and 24 hours after streptozotocin
Procedure: Spiro-oxazolidindiones prepared as described in the above examples were tested for their ability to reduce or inhibit sorbitol accumulation in the sciatic nerve of streptozotocinized (i.e., diabetic) rats by the procedure essentially described in U.S. Pat. No. 3,821,383. In the present study, the amount of sorbitol accumulation in the sciatic nerves was measured 27 hours after induction of diabetes. The compounds were administered orally at the dose levels indicated at 4, 8 and 24 hours following the administration of streptozotocin. The results obtained in this manner are presented below in terms of percent inhibition afforded by the test compound as compared to the case where no compound was administered (i.e., the untreated animal where sorbitol levels normally rise from approximately […]. tissue to as high as 400 mM/g. tissue in the 27-hour test period). In this test values below 20 are not always experimentally and statistically significant.

aldose reductase = biological target: T1, aldose reductase (Bos taurus, UniProt P16116); assay: inhibition of aldose reductase enzyme activity (partially purified enzyme from calf lens); type: biochemical; conditions: / indicates results of duplicate tests; for inhibition at 1 µM: 10^-6 M
T1 construct: partially purified aldose reductase enzyme obtained from calf lens; from tissue; host or cells: calf lens
Procedure: Spiro-oxazolidindiones prepared as described in the previous examples were tested for their ability to reduce or inhibit aldose reductase enzyme activity, following the procedure described in U.S. Pat. No. 3,821,383 and based on the procedure of Hayman et al., Journal of Biological Chemistry, 240, 877 (1965). The substrate employed was partially purified aldose reductase enzyme obtained from calf lens. The results obtained with each compound at a concentration of 10^-6 M are expressed as percent inhibition of enzyme activity.

| Structure (SMILES) | inhibition at 1 µM (aldose reductase) | % Inhibition at 10^-6 M (aldose reductase) | % Inhibition at mg/kg Dosage 1.5 [1] | % Inhibition at mg/kg Dosage 5 ([1]; 5 mg/kg orally at 4, 8 and 24 hours after streptozotocin) | % Inhibition at mg/kg Dosage 15 ([1]; 15 mg/kg orally at 4, 8 and 24 hours after streptozotocin) |
| --- | --- | --- | --- | --- | --- |
| O=C1NC(=O)C2(CCOc3ccc(Cl)cc32)O1 (stereo not drawn) [Example 3, 6-Chloro-spiro[4H-2,3-dihydrobenzopyran(4,5')oxazolidin]-2',4'-dione] | 86% | 68% | 28% |  |  |
| O=C1NC(=O)C2(CCOc3ccc(Br)cc32)O1 (stereo not drawn) [Example 29, 6-Bromo-spiro[4H-2,3-dihydrobenzopyran(4,5')oxazolidin]-2',4'-dione] | 100% | 87% | 35% |  |  |
| O=C1NC(=O)C2(CCOc3ccc(F)cc32)O1 (stereo not drawn) [Example 28, 6-Fluoro-spiro[4H-2,3-dihydrobenzopyran(4,5')oxazolidin]-2',4'-dione] | 65% |  | 8% |  |  |
| O=C1NC(=O)C2(CCSc3ccccc32)O1 (stereo not drawn) [Example 30, Spiro[4H-2,3-dihydrobenzothiopyran(4,5')oxazolidin]-2',4'-dione] | 42% |  |  |  |  |
| O=C1NC(=O)C2(CCSc3ccc(F)cc32)O1 (stereo not drawn) [Example 31, 6-Fluoro-spiro[4H-2,3-dihydrobenzothiopyran(4,5')oxazolidin]-2',4'-dione] | 61% |  |  |  |  |
| O=C1NC(=O)C2(CCOc3c(Cl)cc(Cl)cc32)O1 (stereo not drawn) [Example 32, 6,8-Dichloro-spiro[4H-2,3-dihydrobenzopyran(4,5')oxazolidin]-2',4'-dione] | 100% |  | 44% |  |  |

Second part, led by results:

| inhibition at 1 µM (aldose reductase) | % Inhibition at 10^-6 M (aldose reductase) | Structure (SMILES) | % Inhibition at mg/kg Dosage 1.5 [1] | % Inhibition at mg/kg Dosage 5 ([1]; 5 mg/kg orally at 4, 8 and 24 hours after streptozotocin) | % Inhibition at mg/kg Dosage 15 ([1]; 15 mg/kg orally at 4, 8 and 24 hours after streptozotocin) |
| --- | --- | --- | --- | --- | --- |
|  | 70% and 100% | O=C1NC(=O)C2(CCSc3ccc(Cl)cc32)O1 (stereo not drawn) [Example 34, 6-Chloro-spiro[4H-2,3-dihydrobenzothiopyran(4,5')oxazolidin]-2',4'-dione] | 14% |  |  |
| 81% | 99% | Cc1cc(Cl)cc2c1OCCC21OC(=O)NC1=O (stereo not drawn) [Example 33, 6-Chloro-8-methyl-spiro[4H-2,3-dihydrobenzopyran(4,5')oxazolidin]-2',4'-dione] | 33% |  |  |
| 96% |  | O=C1NC(=O)C2(CCOc3ccc(Cl)cc32)O1 (single isomer, unassigned; (-)) [Example 35, (-)-6-Chloro-spiro[4H-2,3-dihydrobenzopyran(4,5')oxazolidin]-2',4'-dione] | 41% | 67% | 88% |
